Converted amounts (≈) assume the structure as drawn. Square brackets hold non-standard residues; d marks the D form. Ends that are not written are not given here. Peptide text beside a SMILES is read from it.
Assays:
[1] = system: Listeria ivanovii (Li4pVS2); experiment: MBC, plating of MIC wells on agar; format: cell-based; conditions: free peptide in solution; MIC well and 4 wells above plated on agar, overnight; lowest concentration with at least 99.99% decrease; triplicate
Experimental: (§1) Non-pathogenic bacteria Listeria ivanovii Li4pVS2 (Courtesy of Prof. J.-M. Berjeaud, Poitiers University, Poitiers, France) were used to investigate the antibacterial activity of the modified surfaces. Bacterial suspensions were prepared from frozen cultures incubated overnight (37 °C under agitation at 250 rpm) in brain heart infusion (BHI) broth (BD Difco, Franklin Lakes, NJ, USA). After centrifugation at 10,000× g for 5 min and elimination of the liquid phase (supernatant) the bacteria were redisposed in NaCl 0.9% solution up to a concentration of to 2 × 10^6 colony forming unity (CFU) per mL, verified by measuring the OD620nm = 0.02.
(§2) MIC values of temporin analogs were determined using a liquid growth inhibition assay. An exponential-phase bacterial culture of Listeria ivanovii was diluted in BHI broth to an OD of 0.02 (2 × 10^6 CFU/mL). A volume of 100 μL of this bacterial suspension was mixed with 100 μL of 2-fold serial aqueous dilutions of each temporin (final concentrations from 0.78 to 100 µM). The bacterial growth was monitored by measuring the OD change during overnight incubation. MIC and MBC tests were carried out in triplicate with positive (0.7% formaldehyde) and negative (saline NaCl 0.9% solution) controls. […] The bacterial suspension corresponding to the MIC well and 4 wells above MIC were collected and deposited on agar plate in order to determine the minimal bactericidal concentration (MBC). The MBC is expressed as the lowest concentration for which a decrease of at least 99.99% is observed on agar plates after overnight incubation.

[2] = system: Listeria ivanovii (Li4pVS2); experiment: MIC, liquid growth inhibition assay of free temporins in solution; format: cell-based; conditions: free peptide in solution; BHI broth, 2 × 10^6 CFU/mL, 2-fold serial dilutions, overnight incubation, OD read-out; lowest concentration that completely inhibits growth; triplicate
Experimental: as §1, §2

Compound	MBC [1] [µM]	MIC [2] [µM]
CC[C@@H](C)[C@@H](NC(=O)CNC(=O)[C@@H](CCCCN)NC(=O)[C@@H](CC(C)C)NC(=O)[C@H](N)Cc1ccccc1)C(=O)N[C@@H](C(=O)NCC(=O)N[C@H](CCSC)C(=O)N[C@H](CC(C)C)C(=O)NCC(=O)N[C@H](CCCCN)C(=O)N[C@H](CC(C)C)C(=O)N[C@H](Cc1ccccc1)C(N)=O)C(C)C [D-[K^3]SHa, D-[K^3]temporin-SHa] (H-[dF][dL][dK]G[dI][dV]G[dM][dL]G[dK][dL][dF]-NH2; N-terminus assumed)	3.12 (≈ 4.44 µg/mL)	1.56 (≈ 2.22 µg/mL)
FAKGIAGMAGKLF [[A^2,6,9, K^3]SHa-COOH, [A^2,6,9, K^3]temporin-SHa-COOH]	256	
FAKGIAGMAGKLF-NH2 [[A^2,6,9, K^3]SHa, [A^2,6,9, K^3]temporin-SHa]	>200	
FASGIAGMAGKLF-NH2 [[A^2,6,9]SHa, [A^2,6,9]temporin-SHa]	>200	
FLKGIVGMLGKLF [[K^3]SHa-COOH, [K^3]temporin-SHa-COOH]	128	64
FLKGIVGMLGKLF-NH2 [[K^3]SHa, [K^3]temporin-SHa]	3.12	1.56
FLSGIVGMLGKLF-NH2 [SHa, Temporin-SHa, reference compound]	6	6

Source: paper PMC6412374, “Engineering of Antimicrobial Surfaces by Using Temporin Analogs to Tune the Biocidal/antiadhesive Effect” (Molecules, 2019)
